Measurements: patent publication US11045435B2, “Methods for treating ocular diseases” (NATUREWISE BIOTECH & MEDICALS CORPORATION, priority 2016, dated 2021)

How the values were obtained:
ARPE-19 cells [1] = assay: Hypoxia-induced injury in ARPE-19 cells (MTT); assay type: cell-based, human; conditions: 72 h
Method: (§1) MTT assay was used to measure the viability of ARPE-19 cells and HUVECs. 2×10^5 ARPE-19 cells or 5×10^4 HUVECs were seeded in 96-well plates ([…]) and allowed to grow overnight. Negative control was prepared by adding 100 μl medium without cells. The cells were then treated with fresh medium with COMPOUND I (0.03, 0.1, 0.3, 1, 3 and 10 μg/ml) and/or oxidants (NaIO3, H2O2, t-BHP and NaN3) for 12, 24, or 72 hours (200 μl/well). The vehicle control group was treated with vehicle. 20 μl MTT (5 mg/ml) was added to wells, and incubated for another 4 h. After incubation, the medium was discarded and 100 μl DMSO was added to solubilize formazan produced from MTT by the viable cells. Absorbance was measured at 570 nm using a microplate reader (Bio-Rad Laboratories, Inc., CA). Cells viability was calculated according to the following formula: Viability of cells (%)=(absorbance in tested sample−absorbance in negative control)/(absorbance in vehicle control−absorbance in negative control)×100%.
Cells were allowed to attach overnight, and then exposed to COMPOUND I or vehicle under hypoxic condition for 72 h. Hypoxic conditions (1% O2, 5% CO2 and 94% N2) were maintained by using a temperature and humidity controlled environmental C-chamber by O2 and CO2 controllers (Proox Model 110 and Pro CO2 model 120, Biospherix Ltd., Redfield, N.Y., USA) with N2 and CO2 gas sources.

ARPE-19 cells [2] = assay: NaN3-induced injury in ARPE-19 cells (MTT); assay type: cell-based, human; conditions: 72 h
Method: as §1

[3] = system: Blood-Retinal Barrier Breakdown in Streptozotocin-Induced Diabetic Macular Edema; assay: Evans blue leakage (blood-retinal barrier breakdown) in streptozotocin-induced diabetic macular edema; assay type: in vivo, Sprague-Dawley female rats
Method: After a 16-hour fast, Sprague-Dawley female rats weighing 200-220 g received a single 60 mg/kg intraperitoneal injection of Streptozotocin (STZ; Sigma-Aldrich, St. Louis, Md.) in 10 mM sodium citrate buffer (pH 4.5; Sigma-Aldrich, St. Louis, Md.). Control rats were fasted and received the buffer alone. Rats with blood glucose levels higher than 375 mg/dL 7 days after receiving STZ were considered to be diabetic. Body weight and blood glucose were detected every week. All experiments were performed in accordance with regulations specified by the Guide for the Care and Handling of Laboratory Animals (NIH Publication no. 85-23). For the treatments, rats were instilled with 0.5% and 1% COMPOUND I eye drops. Both eyes of all rats were instilled with 1 drop of ophthalmic solution 3 times a day for 6 weeks after diabetes production. Rats were treated with 0.5% and 1% COMPOUND I or vehicle solution eye drops 3 times a day for […] after glucose levels determination. Animal care and treatment were followed by the institutional guidelines. After induction of general anesthesia, the right jugular vein and right iliac artery were cannulated with 0.28- and 0.58-mm internal diameter polyethylene tubing, respectively, which were filled with heparinized saline (50 IU heparin/ml saline). Evans blue (Sigma-Aldrich, St. Louis, Md.) was injected through the jugular vein over 10 seconds at a dosage of 45 mg/kg. Immediately after Evans blue infusion, the rats turned visibly blue, confirming their uptake and distribution of the dye. Subsequently, at 15-minute intervals, 0.1 ml blood was drawn from the iliac artery for 2 hours to obtain the time-averaged plasma Evans blue concentration. After the dye had circulated for 120 minutes, the chest cavity was opened, and rats were perfused for 2 minutes via the left ventricle at 37° C. with 0.05 M, pH 3.5, citrate-buffered paraformaldehyde (Sigma-Aldrich, St. Louis, Md.). A pH of 3.5 was used to optimize binding of Evans blue to albumin and the perfusion solution was warmed to 37° C. to prevent vasoconstriction. Immediately after perfusion, both eyes were enucleated and dissected at the equator. The retinas were carefully dissected away under an operating microscope and thoroughly dried in vacuum equipment for 5 hours. The dry weight was used to normalize the quantitation of Evans blue leakage. Evans blue was extracted by incubating each retina in […] formamide (Sigma-Aldrich. St. Louis. Md.) for 18 hours at 70° C. […] The background-subtracted absorbance was determined by measuring each sample at both 620 nm, the absorbance maximum for Evans blue in formamide, and 740 nm, the absorbance minimum. The concentration of dye in the extracts was calculated from a standard curve of Evans blue in formamide. […]

COc1ccc(COc2c(/C=C/C(=O)NO)ccc(OC)c2CC=C(C)C)cc1 [COMPOUND I]
effect on cells in hypoxic condition (ARPE-19 cells [1]; 0.03 μg/ml to 10 μg/ml except 3 μg/ml): had no effect | increase of viability in hypoxic condition (ARPE-19 cells [1]; 3 μg/ml, 1% O2): 22% | effect on NaN3-induced injury (ARPE-19 cells [2]): significantly reversed | Evans blue leakage, diabetic vehicle control group as 100% ([3]; 0.5% eye drops 3 times a day): 68% | Evans blue leakage, in words ([3]; 0.5% eye drops 3 times a day): partially | Evans blue leakage, diabetic vehicle control group as 100% ([3]; 1% eye drops 3 times a day): 56% | Evans blue leakage / BRB breakdown, in words ([3]; 1% eye drops 3 times a day, listed as BMX): completely restored
